# Measured values as given in EPA's ToxRefDB 2.
# Legend:
# [1] = test system: rat; conditions: Multigenerational reproductive toxicity study, wistar, Oral, Feed, dose end: 2 generation
# [2] = test system: rabbit; conditions: Prenatal developmental toxicity study, himalayan, Oral, Gavage/Intubation, dose end: 28 GD
# [3] = test system: rat; conditions: Prenatal developmental toxicity study, wistar, Oral, Gavage/Intubation, dose end: 19 GD
# [4] = test system: rat; conditions: Prenatal developmental toxicity study, sprague dawley, Oral, Gavage/Intubation, dose end: 17 GD
# [5] = test system: rabbit; conditions: Prenatal developmental toxicity study, new zealand white, Oral, Gavage/Intubation, dose end: 18 GD
# [6] = test system: rabbit; conditions: Prenatal developmental toxicity study, new zealand white, Oral, Water, dose end: 19 GD
# [7] = test system: rat; conditions: Multigenerational reproductive toxicity study, sprague dawley, Oral, Feed, dose end: 2 generation, systemic / hematology / erythrocyte (rbc) count differential / erythrocyte (rbc) + systemic / hematology / hematocrit (hct) / hematocrit (…
# [8] = test system: rat; conditions: Multigenerational reproductive toxicity study, wistar, Oral, Feed, dose end: 2 generation; remark: listed apart in the source
# [9] = group: offspring, systemic / in life observation / body weight / offspring (pup) weight + systemic / in life observation / body weight / offspring (pup) …
# [10] = group: parental, systemic / in life observation / body weight / body weight gain
# [11] = group: developmental, developmental / developmental malformation / liver / [other]
# [12] = group: maternal, reproductive / reproductive performance / aborted / aborted + systemic / in life observation / body weight / body weight gain + systemic / …
# [13] = group: developmental, developmental / developmental malformation / aortic arch / narrowed + developmental / developmental malformation / bone / [other] + …
# [14] = group: developmental, developmental / developmental malformation / bone / incomplete ossification + developmental / developmental malformation / bone / wavy + …
# [15] = group: maternal, systemic / in life observation / body weight / body weight + systemic / in life observation / body weight / body weight gain + systemic / in…
# [16] = group: developmental, developmental / developmental malformation / bone / incomplete ossification + systemic / in life observation / body weight / fetal weight
# [17] = group: maternal, systemic / in life observation / body weight / body weight gain + systemic / in life observation / clinical signs / alopecia + systemic / in…
# [18] = group: developmental, developmental / developmental malformation / bone / incomplete ossification + developmental / developmental malformation / bone / short + …
# [19] = group: maternal, reproductive / reproductive performance / resorptions / resorptions + systemic / in life observation / body weight / body weight + systemic…
# [20] = group: developmental, developmental / developmental malformation / other / other + systemic / in life observation / body weight / fetal weight
# [21] = group: maternal, systemic / in life observation / clinical signs / defecation + systemic / in life observation / food consumption / food consumption + …
# [22] = group: maternal, reproductive / reproductive performance / fertility / fertility + reproductive / reproductive performance / precoital interval / precoital …
# [23] = group: offspring, developmental / offspring survival late / viability index / viability index
# [24] = group: offspring, developmental / offspring survival late / viability index / viability index + reproductive / offspring survival early / dead fetuses / dead …
# [25] = group: parental, systemic / in life observation / body weight / body weight + systemic / in life observation / body weight / body weight gain + systemic / in…
# [26] = group: reproductive, reproductive / reproductive performance / gestational length / gestational length + reproductive / reproductive performance / gestation …
smiles,measurement,setting,value
CCOC(=O)OC1=C(c2cc(C)ccc2C)C(=O)NC12CCC(OC)CC2 (configuration not stated) [Spirotetramat],LOAEL,[1]; [9],487 mg/kg/day
same,NEL,[1]; [9],19.3 mg/kg/day
same,NOAEL,[1]; [9],79.5 mg/kg/day
same,LEL,"[1]; group: offspring, systemic / in life observation / body weight / offspring (pup) weight gain",79.5 mg/kg/day
same,LEL,[1]; [10],419 mg/kg/day
same,LOAEL,[1]; [10],419 mg/kg/day
same,NEL,[1]; [10],70.7 mg/kg/day
same,NOAEL,[1]; [10],70.7 mg/kg/day
same,LEL,[2]; [11],160 mg/kg/day
same,LOAEL,[2]; [11],> 160 mg/kg/day
same,NEL,[2]; [11],40 mg/kg/day
same,NOAEL,[2]; [11],≥ 160 mg/kg/day
same,LEL,[2]; [12],40 mg/kg/day
same,LOAEL,[2]; [12],40 mg/kg/day
same,NEL,[2]; [12],10 mg/kg/day
same,NOAEL,[2]; [12],10 mg/kg/day
same,LOAEL,[3]; [13],1000 mg/kg/day
same,NOAEL,[3]; [13],140 mg/kg/day
same,LEL,[3]; [14],20 mg/kg/day
same,NEL,[3]; [14],< 20 mg/kg/day
same,LEL,"[3]; group: maternal, systemic / in life observation / body weight / body weight",140 mg/kg/day
same,LOAEL,[3]; [15],1000 mg/kg/day
same,NEL,[3]; [15],20 mg/kg/day
same,NOAEL,[3]; [15],140 mg/kg/day
Cc1cccc(C)c1NC(=O)c1ccc(N)cc1 [Ameltolide],LEL,[4]; [16],50 mg/kg/day
same,LOAEL,[4]; [16],> 50 mg/kg/day
same,NEL,[4]; [16],25 mg/kg/day
same,NOAEL,[4]; [16],≥ 50 mg/kg/day
same,LEL,[4]; [17],50 mg/kg/day
same,LOAEL,[4]; [17],> 50 mg/kg/day
same,NEL,[4]; [17],25 mg/kg/day
same,NOAEL,[4]; [17],≥ 50 mg/kg/day
same,LEL,[5]; [18],100 mg/kg/day
same,LOAEL,[5]; [18],> 100 mg/kg/day
same,NEL,[5]; [18],50 mg/kg/day
same,NOAEL,[5]; [18],≥ 100 mg/kg/day
same,LEL,[5]; [19],100 mg/kg/day
same,LOAEL,[5]; [19],> 100 mg/kg/day
same,NEL,[5]; [19],50 mg/kg/day
same,NOAEL,[5]; [19],≥ 100 mg/kg/day
[Na+].[O-][Cl+][O-] [Sodium chlorite],LEL,[6]; [20],35.5 mg/kg/day
same,LOAEL,[6]; [20],35.5 mg/kg/day
same,NEL,[6]; [20],13 mg/kg/day
same,NOAEL,[6]; [20],13 mg/kg/day
same,LEL,[6]; [21],35.5 mg/kg/day
same,LOAEL,[6]; [21],35.5 mg/kg/day
same,NEL,[6]; [21],13 mg/kg/day
same,NOAEL,[6]; [21],13 mg/kg/day
O=C(Nc1ccc(F)cc1)c1cccc(Oc2cccc(C(F)(F)F)c2)n1 [Picolinafen],LEL,[7]; group: offspring,21 mg/kg/day
same,LOAEL,[7]; group: offspring,> 43 mg/kg/day
same,NEL,[7]; group: offspring,4.3 mg/kg/day
same,NOAEL,[7]; group: offspring,≥ 43 mg/kg/day
same,LEL,[7]; group: parental,19 mg/kg/day
same,LOAEL,[7]; group: parental,19 mg/kg/day
same,NEL,[7]; group: parental,3.7 mg/kg/day
same,NOAEL,[7]; group: parental,3.7 mg/kg/day
Fc1ccc([C@@]2(Cn3cncn3)O[C@@H]2c2ccccc2Cl)cc1 [Epoxiconazole],LEL,[8]; [22],22.1 mg/kg/day
same,LOAEL,[8]; [22],22.1 mg/kg/day
same,NEL,[8]; [22],2.17 mg/kg/day
same,NOAEL,[8]; [22],2.17 mg/kg/day
same,LEL,[8]; [23],0.85 mg/kg/day
same,NEL,[8]; [23],< 0.85 mg/kg/day
same,LOAEL,[8]; [24],22.1 mg/kg/day
same,NOAEL,[8]; [24],2.17 mg/kg/day
same,LEL,[8]; [25],22.1 mg/kg/day
same,LOAEL,[8]; [25],22.1 mg/kg/day
same,NEL,[8]; [25],2.17 mg/kg/day
same,NOAEL,[8]; [25],2.17 mg/kg/day
same,LEL,[8]; [26],31.9 mg/kg/day
same,LOAEL,[8]; [26],31.9 mg/kg/day
same,NEL,[8]; [26],2.41 mg/kg/day
same,NOAEL,[8]; [26],2.41 mg/kg/day
